This is an account of results in patent US9133148B2, “Carbamate compounds and of making and using same” (Abide Therapeutics, Inc., priority 2012, dated 2015).

Format in all cases: biochemical
Common to all, as to conditions: mouse brain membrane proteome

The target in one experiment is FAAH (Mus musculus (Mouse), UniProt O08914). The experiment in a line: In vitro competitive activity-based protein profiling (FP-Rh), mouse FAAH. As for the experimental part:
(§1) In Vitro Competitive Activity-Based Protein Profiling.
(§2) Proteomes (mouse brain membrane fraction or cell lysates) ([…], 1.0 mg/mL total protein concentration) were preincubated with varying concentrations of inhibitors at 37° C. After 30 min, FP-Rh (1.0 μL, 50 μM in DMSO) was added and the mixture was incubated for another 30 min at 37° C. Reactions were quenched with SDS loading buffer (50 μL—4×) and run on SDS-PAGE.

The target of a further experiment is MAGL (Mus musculus (Mouse), UniProt O35678). The experiment in a line: In vitro competitive activity-based protein profiling (FP-Rh), mouse MAGL. As for the experimental part:
as §1, §2

The next experiment deals with ABHD6 (Mus musculus (Mouse), UniProt Q8R2Y0). In words: In vitro competitive activity-based protein profiling (FP-Rh), mouse ABHD6. How it is done: as §1, §2
ABHD6, sequence (Q8R2Y0 whole entry): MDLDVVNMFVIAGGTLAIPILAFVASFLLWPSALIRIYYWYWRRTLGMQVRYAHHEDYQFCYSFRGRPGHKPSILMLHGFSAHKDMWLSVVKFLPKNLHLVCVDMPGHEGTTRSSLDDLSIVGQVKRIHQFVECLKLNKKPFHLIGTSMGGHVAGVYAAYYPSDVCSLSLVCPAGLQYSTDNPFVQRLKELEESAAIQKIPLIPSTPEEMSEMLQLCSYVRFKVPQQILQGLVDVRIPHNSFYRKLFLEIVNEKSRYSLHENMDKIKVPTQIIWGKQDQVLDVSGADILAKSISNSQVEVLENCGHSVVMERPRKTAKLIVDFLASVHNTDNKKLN

FAAH, sequence (O08914 whole entry): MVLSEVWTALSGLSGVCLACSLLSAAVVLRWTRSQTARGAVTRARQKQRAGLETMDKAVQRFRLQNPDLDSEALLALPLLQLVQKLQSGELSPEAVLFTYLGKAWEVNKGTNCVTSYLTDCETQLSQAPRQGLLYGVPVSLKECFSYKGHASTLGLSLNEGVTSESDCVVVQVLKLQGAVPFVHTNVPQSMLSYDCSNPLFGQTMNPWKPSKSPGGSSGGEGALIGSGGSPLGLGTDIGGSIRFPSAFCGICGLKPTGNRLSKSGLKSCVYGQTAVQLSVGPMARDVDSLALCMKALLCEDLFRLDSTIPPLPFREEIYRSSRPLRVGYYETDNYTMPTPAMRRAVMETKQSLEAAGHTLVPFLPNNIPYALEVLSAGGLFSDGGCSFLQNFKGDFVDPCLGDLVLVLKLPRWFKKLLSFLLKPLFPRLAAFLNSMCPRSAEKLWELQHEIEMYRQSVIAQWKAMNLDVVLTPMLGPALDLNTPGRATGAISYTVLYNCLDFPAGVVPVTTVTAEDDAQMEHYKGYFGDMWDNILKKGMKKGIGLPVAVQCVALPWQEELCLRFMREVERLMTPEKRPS
MAGL, sequence (O35678 whole entry): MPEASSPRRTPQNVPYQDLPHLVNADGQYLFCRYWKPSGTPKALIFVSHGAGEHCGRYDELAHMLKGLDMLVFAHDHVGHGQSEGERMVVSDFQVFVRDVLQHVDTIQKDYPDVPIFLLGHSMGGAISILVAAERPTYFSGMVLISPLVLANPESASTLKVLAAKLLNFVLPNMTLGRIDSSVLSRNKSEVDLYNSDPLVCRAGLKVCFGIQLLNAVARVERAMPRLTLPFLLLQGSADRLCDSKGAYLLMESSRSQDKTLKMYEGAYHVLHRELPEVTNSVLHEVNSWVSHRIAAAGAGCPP

Turning to `CC(C)(C)OC(=O)N1CCN(C(=O)OC(C(F)(F)F)C(F)(F)F)CC1` [Example 3d, 1-tert-butyl 4-(1,1,1,3,3,3-hexafluoropropan-2-yl)piperazine-1,4-dicarboxylate], the IC50 (usually the concentration that gives 50% inhibition) at FAAH (competitive ABPP) was above 10000 nM; at MAGL (competitive ABPP) it was above 1000 nM; on ABHD6 (competitive ABPP), above 1000 nM.
For `O=C(O)C(OC(=O)N1CCN(C(c2ccc(Cl)cc2)c2ccc(Cl)cc2)CC1)C(F)(F)F` (stereo not drawn) [Example 6i, 2-((4-(bis(4-chlorophenyl)methyl)piperazine-1-carbonyl)oxy)-3,3,3-trifluoropropanoic acid], the 50% inhibitory concentration (IC50) is above 10000 nM at FAAH (competitive ABPP), above 1000 nM on MAGL (competitive ABPP) and above 1000 nM at ABHD6 (competitive ABPP).
With `COC(=O)C(OC(=O)N(C)CCc1ccccc1)C(F)(F)F` (stereo not drawn) [Example 7k, Methyl 3,3,3-trifluoro-2-((methyl(phenethyl)carbamoyl)oxy)propanoate], the concentration for half-maximal inhibition (IC50) on FAAH (competitive ABPP) was above 10000 nM; on MAGL (competitive ABPP), above 1000 nM; at ABHD6 (competitive ABPP) it was above 1000 nM.
Take `O=C(OC(C(F)(F)F)C(F)(F)F)N1CCN(Cc2ccc(N3CCOCC3)cc2F)CC1` [Example 9a, 1,1,1,3,3,3-hexafluoropropan-2-yl 4-(2-fluoro-4-morpholinobenzyl)piperazine-1-carboxylate]: the values for the half-inhibitory concentration (IC50) at FAAH (competitive ABPP (Table 7)), at MAGL (competitive ABPP (Table 7)) and on ABHD6 (competitive ABPP (Table 7)) were above 10000 nM, 100 to 1000 nM and 100 to 1000 nM, respectively.
As for `O=C(OC(C(F)(F)F)C(F)(F)F)N1CCN(Cc2ccc(N3CCCC3)c(F)c2)CC1` [Example 9aa, 1,1,1,3,3,3-hexafluoropropan-2-yl 4-(3-fluoro-4-(pyrrolidin-1-yl)benzyl)piperazine-1-carboxylate], the values for the 50% inhibitory concentration (IC50) on FAAH (competitive ABPP (Table 7)), on MAGL (competitive ABPP (Table 7)) and on ABHD6 (competitive ABPP (Table 7)) were above 10000 nM, 100 to 1000 nM and 100 to 1000 nM, respectively.
With `O=C(OC(C(F)(F)F)C(F)(F)F)N1CCN(Cc2ccc(N3CCCC3)cc2Cl)CC1` [Example 9ab, 1,1,1,3,3,3-hexafluoropropan-2-yl 4-[[2-chloro-4-(pyrrolidin-1-yl)phenyl]methyl]piperazine-1-carboxylate], the IC50 is above 10000 nM on FAAH (competitive ABPP (Table 7)), 100 to 1000 nM on MAGL (competitive ABPP (Table 7)) and above 1000 nM at ABHD6 (competitive ABPP (Table 7)).
For the compound `O=C(OC(C(F)(F)F)C(F)(F)F)N1CCN(Cc2ccc(Cl)cc2-n2cccn2)CC1` [Example 9ae, 1,1,1,3,3,3-hexafluoropropan-2-yl 4-(4-chloro-2-(1H-pyrazol-1-yl)benzyl)piperazine-1-carboxylate], the half-inhibitory concentration (IC50) at FAAH (competitive ABPP (Table 7)) was above 10000 nM; at MAGL (competitive ABPP (Table 7)), 100 to 1000 nM; on ABHD6 (competitive ABPP (Table 7)), 100 to 1000 nM.
For `O=C(OC(C(F)(F)F)C(F)(F)F)N1CCN(Cc2cccc(N3CCOCC3)c2)CC1` [Example 9ah, 1,1,1,3,3,3-hexafluoropropan-2-yl 4-(3-morpholinobenzyl)piperazine-1-carboxylate], the half-inhibitory concentration (IC50) on FAAH (competitive ABPP (Table 7)) was above 10000 nM; at MAGL (competitive ABPP (Table 7)) it was below 100 nM; on ABHD6 (competitive ABPP (Table 7)), below 100 nM.
With `O=C(OC(C(F)(F)F)C(F)(F)F)N1CCN(Cc2ccc(Cl)cc2-n2cc(Cl)cn2)CC1` [Example 9ai, 1,1,1,3,3,3-hexafluoropropan-2-yl 4-(4-chloro-2-(4-chloro-1H-pyrazol-1-yl)benzyl)piperazine-1-carboxylate], the 50% inhibitory concentration (IC50) on FAAH (competitive ABPP (Table 7)) is above 10000 nM; at MAGL (competitive ABPP (Table 7)), below 100 nM; at ABHD6 (competitive ABPP (Table 7)), 100 to 1000 nM.
In the same order, the values of `O=C(OC(C(F)(F)F)C(F)(F)F)N1CCN(Cc2ccc(N3CCCC3)cc2OC(F)(F)F)CC1` [Example 9ap, 1,1,1,3,3,3-hexafluoropropan-2-yl 4-(4-(pyrrolidin-1-yl)-2-(trifluoromethoxy)benzyl)piperazine-1-carboxylate] are above 10000 nM, 100 to 1000 nM and above 1000 nM.
For the compound `O=C(OC(C(F)(F)F)C(F)(F)F)N1CCN(Cc2cccc(F)c2N2CCCC2)CC1` [Example 9as, 1,1,1,3,3,3-hexafluoropropan-2-yl 4-(3-fluoro-2-(pyrrolidin-1-yl)benzyl)piperazine-1-carboxylate], the values for the IC50 at FAAH (competitive ABPP (Table 7)), on MAGL (competitive ABPP (Table 7)) and on ABHD6 (competitive ABPP (Table 7)) were above 10000 nM, 100 to 1000 nM and above 1000 nM, respectively.
In the same order, the values of `CC(C)c1cc(N2CCCC2)ccc1CN1CCN(C(=O)OC(C(F)(F)F)C(F)(F)F)CC1` [Example 9au, 1,1,1,3,3,3-hexafluoropropan-2-yl 4-(2-isopropyl-4-(pyrrolidin-1-yl)benzyl)piperazine-1-carboxylate] are above 10000 nM, above 1000 nM and above 1000 nM.
As to `CC(=O)N1CCN(c2cc(Cl)ccc2CN2CCN(C(=O)OC(C(F)(F)F)C(F)(F)F)CC2)CC1` [Example 9aw, 1,1,1,3,3,3-hexafluoropropan-2-yl 4-(2-(4-acetylpiperazin-1-yl)-4-chlorobenzyl)piperazine-1-carboxylate], the IC50 on FAAH (competitive ABPP (Table 7)) is above 10000 nM; at MAGL (competitive ABPP (Table 7)), 100 to 1000 nM; on ABHD6 (competitive ABPP (Table 7)), above 1000 nM.
On to `O=C(OC(C(F)(F)F)C(F)(F)F)N1CCN(Cc2ccc(-n3cccn3)c(F)c2)CC1` [Example 9az, 1,1,1,3,3,3-hexafluoropropan-2-yl 4-(3-fluoro-4-(1H-pyrazol-1-yl)benzyl)piperazine-1-carboxylate], for which the figures for the IC50 at FAAH (competitive ABPP (Table 7)), at MAGL (competitive ABPP (Table 7)) and on ABHD6 (competitive ABPP (Table 7)) were above 10000 nM, 100 to 1000 nM and 100 to 1000 nM, respectively.
`O=C(OC(C(F)(F)F)C(F)(F)F)N1CCN(Cc2ccc(Br)cc2Oc2ccccc2)CC1` [Example 9b, 1,1,1,3,3,3-hexafluoropropan-2-yl 4-(4-bromo-2-phenoxybenzyl)piperazine-1-carboxylate]: the IC50 was above 10000 nM at FAAH (competitive ABPP), below 100 nM on MAGL (competitive ABPP) and 100 to 1000 nM at ABHD6 (competitive ABPP).
Take `CC(=O)N[C@@H]1CCN(c2cc(Cl)ccc2CN2CCN(C(=O)OC(C(F)(F)F)C(F)(F)F)CC2)C1` [Example 9ba, (R)-1,1,1,3,3,3-hexafluoropropan-2-yl 4-(2-(3-acetamidopyrrolidin-1-yl)-4-chlorobenzyl)piperazine-1-carboxylate]: the half-inhibitory concentration (IC50) at FAAH (competitive ABPP (Table 7)) was above 10000 nM; on MAGL (competitive ABPP (Table 7)), below 100 nM; on ABHD6 (competitive ABPP (Table 7)), above 1000 nM.
On the same counts, the results for `CC(=O)N[C@H]1CCN(c2cc(Cl)ccc2CN2CCN(C(=O)OC(C(F)(F)F)C(F)(F)F)CC2)C1` [Example 9bb, (S)-1,1,1,3,3,3-hexafluoropropan-2-yl 4-(2-(3-acetamidopyrrolidin-1-yl)-4-chlorobenzyl)piperazine-1-carboxylate] are above 10000 nM, below 100 nM and above 1000 nM.
On the same counts, the results for `O=C(OC(C(F)(F)F)C(F)(F)F)N1CCN(Cc2ccc(C(=O)N3CCC3)cc2Cl)CC1` [Example 9be, 1,1,1,3,3,3-hexafluoropropan-2-yl 4-(4-(azetidine-1-carbonyl)-2-chlorobenzyl)piperazine-1-carboxylate] are above 10000 nM, 100 to 1000 nM and 100 to 1000 nM.
In the same order, the values of `O=C(OC(C(F)(F)F)C(F)(F)F)N1CCN(Cc2cccc(Cl)c2C(=O)N2CCCC2)CC1` [Example 9bg, 1,1,1,3,3,3-hexafluoropropan-2-yl 4-(3-chloro-2-(pyrrolidine-1-carbonyl)benzyl)piperazine-1-carboxylate] are above 10000 nM, 100 to 1000 nM and above 1000 nM.
Take `O=C(OC(C(F)(F)F)C(F)(F)F)N1CCN(Cc2ccc(N3CCOCC3)cc2Cl)CC1` [Example 9e, 1,1,1,3,3,3-hexafluoropropan-2-yl 4-(2-chloro-4-morpholinobenzyl)piperazine-1-carboxylate]: the IC50 was above 5000 nM on FAAH (competitive ABPP (Table 7)), 100 to 1000 nM on MAGL (competitive ABPP (Table 7)) and 100 to 1000 nM at ABHD6 (competitive ABPP (Table 7)).
